From patent US5961483A, “Iontophoretic delivery of cell adhesion inhibitors” (priority 1997, dated 1999)
Converted amounts (≈) assume the structure as drawn. “And” between values parts separate entries of the source, which are not always exact repeats. Equal values may be shown once. Where a name gives a salt, the structure may show the parent alone.

Columns and labels:
[1] = Assay of extracts of the patch following completion of iontophoresis; format: in vitro ADME
[2] = Physicochemical properties; settings: pH 4
[3] = In vitro excised skin iontophoretic delivery (flow-through cells); format: in vitro ADME, porcine; settings: for delivery rate (FIG. 7): 50 mg/mL chloride salt
Method: Patch Designs: The 2 compartment patch design includes an absorbent drug reservoir with 2 cm^2 skin-contacting area and volume of 0.30 mL. The drug reservoir is separated from the electrode compartment with a 100 MWCO ultrafiltration membrane. The electrode compartment included a silver anode and cation exchange media in a hydrogel. A monolithic patch design was also used, consisting of a sandwich composed of a silver anode in the middle of 2 layers of absorbent material. The patches are assembled and loaded with the dosing solution just before applying to the skin.
Experimental Protocol: The iontophoretic delivery of a GPIIb/IIIa antagonist was carried out in a flow-through in vitro system. […] The patch was loaded a 10 mg/mL solution of the IIb/IIIa antagonist in 154 mM saline.
A silver chloride mesh return cathode was located upstream of the polycarbonate flow-through cells. Freshly dermatomed (1 mm) porcine skin was mounted in the cells on a porous support. The patches were dosed with aqueous solutions of the drug and then placed on top of the excised skin. The patches were secured by a spring-loaded mechanism that maintained even pressure over the patch. The cells were "perfused" by means of a peristaltic pump which pulls receiver solution through them. Effluents from the cells were collected with a fraction collector. Flow rates were typically 0.25 mL/min. The receiver solution was an isotonic pH 7.4 buffered saline solution containing 10 mM HEPES, 100 mM NaCl, PEG 400, and a surfactant, Pluronic P-103. lontophoresis current (50 μA) was provided by WPI power cells, and the applied currents and cell voltages were recorded with a Fluke databucket.
Results: The effluent receiver solution was measured in a series of six runs, to determine whether the ester was hydrolyzed during the period of the iontophoresis. Results were obtained by means of liquid scintillation counting (radioactivity), and HPLC-UV. The HPLC results are estimates based on calibration for the ester form only.
Patches: A dual compartment 2 cm^2 patch design, loaded with 100 mg/mL of the GPIIb/IIIa antagonist of Example 1, with a size exclusion or anion exchange membrane separator.
Experimental Protocol: See Example 1, with current applied at 400 μA.
Patches: A dual compartment 2 cm^2 patch design, loaded with 50 mg/mL chloride salt of the IIb/IIIa antagonist.
Experimental Protocol: See Example 1, current applied at 100 μA and 200 μA.
Patches: A dual compartment 2 cm^2 patch design, loaded with either: (1) a 1 mM NaCl, 150 mg/mL formulation of the IIb/IIIa antagonist of Example 1, or (2) a 75 mM NaCl, 100 mg/mL formulation of the drug.
Experimental Protocol: See Example 1, current applied at 100 μA for the 1 mM NaCl sample, and at 400 μA for the 75 mM NaCl sample.

[4] = In vivo swine experiments (iontophoretic delivery, plasma levels; comparison with constant IV infusion); parameters: species or system Yorkshire swine
Method: Patch Design: Same as in Example 1.
Experimental Protocol: In each experiment, the patches were loaded with a 20 mg/mL solution of the same IIb/IIIa antagonist used in Example 1 in 154 mM saline, immediately before application to the skin of the animals. Unanesthetized Yorkshire swine with weights of about 20 to 35 kg were used. The skin sites receiving the patches were wiped clean with moist gauze pads. Patches were overwrapped with an adhesive, elastic wrap to hold the patches in place. Separate constant current (100 μA) power supplies were provided for each iontophoresis patch system. Current and voltage readings were made and recorded by on-board dataloggers (Fluke databuckets).
Blood samples were withdrawn from the vena cava through an IV catheter into VACUTAINER™ blood collection tubes containing EDTA. After gentle mixing, the tubes were centrifuged to separate the plasma, which was transferred to clean polypropylene tubes and frozen on dry ice. Frozen samples were stored at -80° C. until assayed.
Results: FIGS. 4 and 5 provide a comparative illustration of the in vivo delivery of the GPIIb/IIIa antagonist (mentioned in Example 1) to pigs using constant IV infusion (FIG. 4) and constant iontophoresis (FIG. 5). IV infusion employed the acid form of the drug at an infusion rate of 10 μg/h.

| acid hydrolysis product in extracts of the patch [1] | solubility [2] [mg/mL] | constancy of flux (FIG. 3) [3] | delivery rate profile (FIG. 8) ([3]; 1 mM NaCl, 150 mg/mL at 100 μA and 75 mM NaCl, 100 mg/mL at 400 μA, 24 hour iontophoresis) | dependence of in vitro delivery on current (FIG. 3) ([3]; 10 mg/mL drug, 9 mg/mL NaCl) | variability in delivery from skin to skin (FIG. 2) ([3]; 10 mg/mL, 154 mM NaCl, 50 μA) | delivery, anion exchange compared with size exclusion membrane patch (FIG. 6) ([3]; dual compartment 2 cm^2 patch, 100 mg/mL, 400 μA) | metabolism of the positively charged ester to the uncharged zwitterion ([3]; in the skin or receptor fluid) | variability in plasma levels with iontophoresis ([4]; 20 mg/mL in 154 mM saline patch) | blood levels, iontophoresis compared with constant IV infusion (FIGS. 4 and 5) ([4]; 20 mg/mL in 154 mM saline patch vs acid form IV at 10 μg/h, plasma acid drug form) | delivery rate (FIG. 7) ([3]; 100 μA, nearly flat delivery) [µg/h] | delivery rate (FIG. 7) ([3]; 200 μA, nearly constant delivery) [µg/h] | Compound | delivery rate profile (FIG. 6) ([3]; dual compartment patches, 100 mg/mL, 400 μA) | Total (Liquid Scintillation Assay) ([3]; effluent receiver solution, 10 mg/mL in 154 mM saline, 50 μA, six runs (sample 1-6)) |
| --- | --- | --- | --- | --- | --- | --- | --- | --- | --- | --- | --- | --- | --- | --- |
| no detectable acid hydrolysis product | 80 (≈ 179 mM) | very constant over the 24 hour period | much more uniform delivery rates | proportional to increase in current | unexpectedly low | somewhat greater delivery | metabolized, to some extent | extremely low | similar |  |  | CCCCOC(=O)N[C@@H](CNC(=O)C[C@H]1CC(c2ccc(C(=N)N)cc2)=NO1)C(=O)OC [GPIIb/IIIa antagonist, methyl-N^3-[2-{3-(4-formamidinophenyl)-isoxazolin-5(R)-yl}-acetyl]-N^2-(n-butyloxycarbonyl)-2,3-(S)-diaminopropanoate] | the flux starts high, and falls as electrolyte cations accumulate with time | 4.76 µg/mL and 4.15 µg/mL and 4.05 µg/mL and 4.87 µg/mL and 5.56 µg/mL and 5.19 µg/mL |
|  |  |  |  |  |  |  |  |  |  | 10 to 20 | 20 to 35 | CCCCOC(=O)N[C@@H](CNC(=O)C[C@H]1CC(c2ccc(C(=N)N)cc2)=NO1)C(=O)OC [chloride salt of the IIb/IIIa antagonist] |  |  |
